Legend:
Klebsiella pneumoniae = assay: microbe, parasite or virus in culture; conditions: ATCC 700603, 18 h, ASSAY_TEST Inhibition of Bacterial Growth, detection method Absorption (OD600), MEDIA CAMHB, plate type 384well, NBS, CORNING #3640
Description: Antibacterial activity against Klebsiella pneumoniae MDR ATCC 70063 (CO-ADD:GN_003); MIC in CAMBH media using NBS plates, by OD(600)

Staphylococcus aureus = assay: microbe, parasite or virus in culture; conditions: ATCC 43300, 18 h, ASSAY_TEST Inhibition of Bacterial Growth, detection method Absorption (OD600), MEDIA CAMHB, plate type 384well, NBS, CORNING #3640
Description: Antibacterial activity against Staphylococcus aureus MRSA ATCC 43300 (CO-ADD:GP_020); MIC in CAMBH media, using NBS plates, by OD(600)

Acinetobacter baumannii = assay: microbe, parasite or virus in culture; conditions: ATCC 19606, 18 h, ASSAY_TEST Inhibition of Bacterial Growth, detection method Absorption (OD600), MEDIA CAMHB, plate type 384well, NBS, CORNING #3640
Description: Antibacterial activity against Acinetobacter baumannii ATCC 19606 (CO-ADD:GN_034); MIC in CAMBH media using NBS plates, by OD600

HEK293 = assay: cells; format: functional, Homo sapiens, ATCC CRL1573; conditions: Homo sapiens, ATCC CRL1573, HEK293; ASSAY_TEST Inhibition of Cell Viability; detection method Resazurin; Fluorescence (ex560/em590); MEDIA DMEM with 10% FBS; plate type 384well; TC; CORNING #3712; time 18 hr; read-out: CC50
Escherichia coli = assay: microbe, parasite or virus in culture; conditions: ATCC 25922, 18 h, ASSAY_TEST Inhibition of Bacterial Growth, detection method Absorption (OD600), MEDIA CAMHB, plate type 384well, NBS, CORNING #3640
Description: Antibacterial activity against Escherichia coli ATCC 25922 (CO-ADD:GN_001); MIC in CAMBH media using NBS plates, by OD(600)

Pseudomonas aeruginosa = assay: microbe, parasite or virus in culture; conditions: ATCC 27853, 18 h, ASSAY_TEST Inhibition of Bacterial Growth, detection method Absorption (OD600), MEDIA CAMHB, plate type 384well, NBS, CORNING #3640
Description: Antibacterial activity against Pseudomonas aeruginosa ATCC 27853 (CO-ADD:GN_042); MIC in CAMBH media using NBS plates, by OD(600)

Candida albicans = assay: microbe, parasite or virus in culture; conditions: ATCC 90028, ASSAY_TEST Inhibition of Fungal Growth, detection method Absorption (OD530), plate type 384well, NBS, CORNING #3640
Description: Antifungal activity against Candida albicans ATCC 90028 (CO-ADD:FG_001); MIC in YNB media using NBS plates, by OD630

Description for Cryptococcus neoformans: Antifungal activity against Cryptococcus neoformans H99 ATCC 208821 (CO-ADD:FG_002); MIC in YNB media using NBS plates, by Resazurin OD(600-570)

Row | SMILES | MIC (Klebsiella pneumoniae) | MIC (Staphylococcus aureus) | MIC (Acinetobacter baumannii) | CC50 (HEK293) [µg/mL] | MIC (Escherichia coli) | MIC (Cryptococcus neoformans) | MIC (Pseudomonas aeruginosa) | MIC (Candida albicans)
1 | Cn1cc(NC(=O)c2ccc(/C=C/c3ccncc3)cc2)cc1C(=O)Nc1cc(C(=O)NCCN2CCOCC2)n(CCCCl)c1.O=C(O)C(F)(F)F.O=C(O)C(F)(F)F | > 32 µg/mL | > 32 µg/mL | > 32 µg/mL | 2.7 | > 32 µg/mL | 16 µg/mL | > 32 µg/mL | > 32 µg/mL
2 | Cn1cc(NC(=O)c2cc(NC(=O)c3ccc(/C=C/c4cnc5ccccc5c4)cc3)cn2C)cc1C(=O)NCCC(=N)N.O=C(O)C(F)(F)F.O=C(O)C(F)(F)F | > 32 µg/mL | > 32 µg/mL | > 32 µg/mL | 6.55 | > 32 µg/mL | 8 µg/mL | > 32 µg/mL | 32 µg/mL
3 | COC(=O)CCC(=O)Nc1cc(C(=O)Nc2cc(C(=O)Nc3nc(C(=O)NCCCN(C)C)c(CCC(C)C)s3)n(C)c2)n(C)c1 | > 32 µg/mL | > 32 µg/mL | > 32 µg/mL | > 32 | > 32 µg/mL | > 32 µg/mL | > 32 µg/mL | > 32 µg/mL
4 | Cn1cc(NC(=O)c2cc(NC(=O)c3ccccc3)cn2C)cc1C(=O)NCCC(=N)N.O=C(O)C(F)(F)F | > 32 µg/mL | > 32 µg/mL | > 32 µg/mL | 7.43 | > 32 µg/mL | > 32 µg/mL | > 32 µg/mL | > 32 µg/mL
5 | Cn1cc(NC(=O)c2cc(NC(=O)c3ccc(/C=C/c4cnc5ccccc5c4)cc3)cn2C)cc1C(=O)NCC[N+]1([O-])CCCCC1.O=C(O)C(F)(F)F | > 32 µg/mL | > 32 µg/mL | > 32 µg/mL | 2.97 | > 32 µg/mL | > 32 µg/mL | > 32 µg/mL | > 32 µg/mL
6 | COc1cccc(/C=C/c2ccc(C(=O)Nc3cc(C(=O)Nc4cc(C(=O)NCCN5CCOCC5)n(CCCc5cn(CCc6ccccc6)nn5)c4)n(C)c3)cc2)c1.O=C(O)C(F)(F)F | > 32 µg/mL | > 32 µg/mL | > 32 µg/mL | > 32 | > 32 µg/mL | 32 µg/mL | > 32 µg/mL | > 32 µg/mL
7 | CC(C)CCc1sc(NC(=O)c2cc(NC(=O)c3cc(NC(=O)c4sc(N)nc4C(F)(F)F)cn3C)cn2C)nc1C(=O)NCCCN(C)C.O=C(O)C(F)(F)F | > 32 µg/mL | 8 µg/mL | > 32 µg/mL | 2.48 | > 32 µg/mL | > 32 µg/mL | > 32 µg/mL | > 32 µg/mL
8 | Cn1cc(NC(=O)c2cc(NC(=O)c3ccc(/C=C/c4ccc5ccccc5c4)cc3)cn2C)cc1C(=O)NCCN1CCOCC1.O=C(O)C(F)(F)F | > 32 µg/mL | > 32 µg/mL | > 32 µg/mL | > 32 | > 32 µg/mL | > 32 µg/mL | > 32 µg/mL | 16 µg/mL
9 | COCCOC1CCN(CCNC(=O)c2cc(NC(=O)c3cc(NC(=O)c4ccc(/C=C/c5ccc6nonc6c5)cc4)cn3C)cn2C)CC1.O=S(=O)(O)O | > 32 µg/mL | > 32 µg/mL | > 32 µg/mL | 3.84 | > 32 µg/mL | > 32 µg/mL | > 32 µg/mL | > 32 µg/mL
10 | COc1ccc(/C=C/c2ccc(C(=O)Nc3cc(C(=O)Nc4nc(C(=O)NCCN5CCOCC5)c(CCc5ccccc5)s4)n(C)c3)cn2)cc1.O=C(O)C(F)(F)F.O=C(O)C(F)(F)F | > 32 µg/mL | > 32 µg/mL | > 32 µg/mL | > 32 | > 32 µg/mL | > 32 µg/mL | > 32 µg/mL | > 32 µg/mL
11 | COCCOC1CCN(C(=O)c2cc(NC(=O)c3cc(NC(=O)c4ccc(/C=C/c5ccc(OC)cc5)nc4)cn3C)cn2C)CC1.O=S(=O)(O)O | > 32 µg/mL | > 32 µg/mL | > 32 µg/mL | 15.5 | > 32 µg/mL | > 32 µg/mL | > 32 µg/mL | > 32 µg/mL
12 | CC(C)c1sc(NC(=O)c2cc(NC(=O)c3cc(NC(=O)c4cc5ccccc5cn4)cn3C)cn2C)nc1C(=O)NCCN1CCOCC1.O=C(O)C(F)(F)F | > 32 µg/mL | > 32 µg/mL | > 32 µg/mL | > 32 | > 32 µg/mL | 32 µg/mL | > 32 µg/mL | > 32 µg/mL
13 | CC(=O)/C=C/c1ccc(C(=O)Nc2cc(C(=O)Nc3cc(C(=O)NCCN4CCOCC4)n(C)c3)n(C)c2)cc1.O=C(O)C(F)(F)F | > 32 µg/mL | > 32 µg/mL | > 32 µg/mL | 7.01 | > 32 µg/mL | > 32 µg/mL | > 32 µg/mL | > 32 µg/mL
14 | Cn1cc(NC(=O)c2cc(NC(=O)c3cc4ccccc4cn3)cn2C)cc1C(=O)NCCN1CCOCC1.O=C(O)C(F)(F)F | > 32 µg/mL | > 32 µg/mL | > 32 µg/mL | > 32 | > 32 µg/mL | > 32 µg/mL | > 32 µg/mL | > 32 µg/mL
15 | Cn1cc(NC(=O)c2cc(NC(=O)c3cc(NC(=O)c4ccc(Cl)cc4Cl)cn3C)cn2C)cc1C(=O)NCCCN1CCOCC1.O=C(O)C(F)(F)F | > 32 µg/mL | > 32 µg/mL | > 32 µg/mL | 7.32 | > 32 µg/mL | > 32 µg/mL | > 32 µg/mL | > 32 µg/mL
16 | Cc1ncc(Cn2cc(CCOS(C)(=O)=O)nn2)c(N)n1 | > 32 µg/mL | > 32 µg/mL | > 32 µg/mL | > 32 | > 32 µg/mL | 2 µg/mL | > 32 µg/mL | 1 µg/mL
17 | COc1ccc(/C=C/c2ccc(C(=O)Nc3cc(C(=O)Nc4cc(C(=O)NCCN5CCOCC5)n(C)c4)n(C)c3)cn2)cc1.O=C(O)C(F)(F)F.O=C(O)C(F)(F)F | > 32 µg/mL | > 32 µg/mL | > 32 µg/mL | 27.1 | > 32 µg/mL | > 32 µg/mL | > 32 µg/mL | > 32 µg/mL
18 | Cn1cc(NC(=O)c2cc(NC(=N)c3ccccc3)cn2C)cc1C(=O)NCCC(=N)N.O=C(O)C(F)(F)F.O=C(O)C(F)(F)F | > 32 µM | > 32 µM | > 32 µM | > 32 | > 32 µM | > 32 µM | > 32 µM | > 32 µM
19 | Cn1cc(NC(=O)c2ccc(/C=C/c3cnc4ccccc4c3)cc2)cc1C(=O)Nc1nc(C(=O)NCCN2CCOCC2)c(CCc2ccccc2)s1.O=C(O)C(F)(F)F.O=C(O)C(F)(F)F | > 32 µg/mL | > 32 µg/mL | > 32 µg/mL | > 32 | > 32 µg/mL | > 32 µg/mL | > 32 µg/mL | > 32 µg/mL
20 | COc1cccc(C(=N)Nc2cc(C(=O)Nc3cc(C(=O)Nc4cc(C(=O)NCCCN(C)C)n(CCC(C)C)c4)n(C)c3)n(C)c2)c1 | > 32 µg/mL | > 32 µg/mL | > 32 µg/mL | > 32 | > 32 µg/mL | > 32 µg/mL | > 32 µg/mL | > 32 µg/mL
21 | CN(C)CCCNC(=O)c1cc(NC(=O)c2cc(NC(=O)c3cc(NC(=N)c4cnc5ccccc5c4)cn3C)cn2C)cn1C.O=C(O)C(F)(F)F.O=C(O)C(F)(F)F | > 32 µg/mL | > 32 µg/mL | > 32 µg/mL | > 32 | > 32 µg/mL | 8 µg/mL | > 32 µg/mL | > 32 µg/mL
22 | Cn1cc(NC(=O)c2cc(NC(=O)c3ccc(/C=C/c4ccc(F)cc4)cc3)cn2C)cc1C(=O)NCCN1CCOCC1.O=C(O)C(F)(F)F | > 32 µg/mL | > 32 µg/mL | > 32 µg/mL | > 32 | > 32 µg/mL | > 32 µg/mL | > 32 µg/mL | > 32 µg/mL
